Measurements: patent US9458170B2, “Compound of camptothecin and preparation and use thereof” (YULIANG LI, priority 2012, dated 2016)

Columns and labels:
Assay type in all cases: cell-based
[1] = system: human colon cancer SW620 cells; assay: Cell Titre Glo luminescent cell viability assay, SW620; settings: SW-620, 72 h, incubated 3 days, 0.3 nM~10 μM, 0.1% DMSO
Protocol: (§1) The human lung cancer A549 cells were cultured in DMEM medium (Gibco®) supplemented with 10% fetal bovine serum (Hyclone®), and human colon cancer SW620, HT-29 cells and human prostate cancer PC-3 cells were cultured in RPMI-1640 medium (Gibco®) supplemented with 10% fetal bovine serum (Hyclone®). The cells described above were cultured in 25 cm^2 or 75 cm^2 plastic cell culture flask (Corning®) filled with 95% air and 5% CO2 at 37° C., for 2˜3 passages per week. Cells were seeded in 96 well cell culture plates (Corning®) at a density of 1×10^3 cells/well (A549), 2×10^3 cells/well (SW620 and HT-29), 3×10^3 cells/well (PC-3), 195 μL/well, and cultured at 37° C., under 95% air and 5% CO2. After 24 h, compounds of this disclosure were added. All the compounds (dissolved in 100% DMSO) were serially diluted three times by 100% DMSO starting from 10 mM. 4 μL of the solution of each concentration was added to 96 μL serum free medium, respectively, and 5 μL diluted solution by medium was added to the culture plates seeded with the cancer cells. The final concentration of DMSO in culture medium was 0.1%, and the final concentration of the compound was 0.3 nM˜10 μM. The said cells were incubated at 37° C. for 3 days. 3 Days later, the viabilities of viable cells were measured by luminescent plate reader according to the reaction of ATP and luciferase (Cell Titre Glo® Luminescent Cell Viability Assay, Promega). This method can be used to evaluate effectiveness of the compounds according to their influences on the cell growth. The dose response curves were generated by the obtained data, and IC50 values were calculated with the program Prism.

[2] = system: human prostate cancer PC-3 cells; assay: Cell Titre Glo luminescent cell viability assay, PC-3; settings: 72 h, incubated 3 days, 0.3 nM~10 μM, 0.1% DMSO
Protocol: as §1

[3] = system: human colon cancer HT-29 cells; assay: Cell Titre Glo luminescent cell viability assay, HT-29; settings: 72 h, incubated 3 days, 0.3 nM~10 μM, 0.1% DMSO
Protocol: as §1

[4] = system: human lung cancer A549 cells; assay: Cell Titre Glo luminescent cell viability assay, A549; settings: 72 h, incubated 3 days, 0.3 nM~10 μM, 0.1% DMSO
Protocol: as §1

Compound | IC50 [1] [µM] | IC50 [2] [µM] | IC50 [3] [µM] | IC50 [4] [µM]
CC[C@@]1(O)C(=O)OCc2c1cc1n(c2=O)Cc2cc3cc(OC)ncc3nc2-1 [Example 1, (S)-4-ethyl-4-hydroxy-9-methoxy-1H-pyrano[3′,4′:6,7]indolizino[1,2-b][1,7]naphthyridine-3,14(4H,12H)-dione] | < 0.1 | < 0.5 | < 0.1 | < 0.1
CC[C@@]1(O)C(=O)OCc2c1cc1n(c2=O)Cc2cc3c(OC)nccc3nc2-1 [Example 2, (S)-7-ethyl-7-hydroxy-1-methoxy-7H-pyrano[3′,4′:6,7]indolizino[1,2-b][1,6]naphthyridine-8,11(10H,13H)-dione] | < 0.5 | > 1 | < 1 | > 1
CC[C@@]1(O)C(=O)OCc2c1cc1n(c2=O)Cc2cc3c(O)nccc3nc2-1 [Example 3, (S)-7-ethyl-1,7-dihydroxy-7H-pyrano[3′,4′:6,7]indolizino[1,2-b][1,6]naphthyridine-8,11(10H,13H)-dione] | < 0.5 | > 1 | < 1 | < 0.5
CC[C@@]1(O)C(=O)OCc2c1cc1n(c2=O)Cc2cc3c(N(C)C)nccc3nc2-1 [Example 4, (S)-1-(dimethylamino)-7-ethyl-7-hydroxy-7H-pyrano[3′,4′:6,7]indolizino[1,2-b][1,6]naphthyridine-8,11(10H,13H)-dione] | < 0.1 | < 0.5 | > 1 | < 0.1
CC[C@@]1(O)C(=O)OCc2c1cc1n(c2=O)Cc2cc3nc(OC)ccc3nc2-1 [Example 5, (S)-7-ethyl-7-hydroxy-2-methoxy-7H-pyrano[3′,4′:6,7]indolizino[1,2-b][1,5]naphthyridine-8,11(10H,13H)-dione] | < 0.1 | < 0.5 | < 0.5 | < 0.1
CC[C@@]1(O)C(=O)OCc2c1cc1n(c2=O)Cc2cc3cc4c(cc3nc2-1)CCO4 [Example 6, (S)-7-ethyl-7-hydroxy-10,13-dihydro-2H-furo[2,3-g]pyrano[3′,4′:6,7]indolizino [1,2-b]quinoline-8,11(3H,7H)-dione] | < 0.5 | > 1 | < 1 | > 1
CC[C@@]1(O)C(=O)OCc2c1cc1n(c2=O)Cc2cc3cc(OC)c(O)cc3nc2-1 [Example 7, (S)-4-ethyl-4,8-dihydroxy-9-methoxy-1H-pyrano[3′,4′:6,7]indolizino[1,2-b]quinoline-3,14(4H,12H)-dione] | < 0.1 | < 0.1 | < 0.1 | < 0.1
CC[C@@]1(O)C(=O)OCc2c1cc1n(c2=O)Cc2cc3cc(O)c(F)cc3nc2-1 [Example 8, (S)-4-ethyl-8-fluoro-4,9-dihydroxy-1H-pyrano[3′,4′:6,7]indolizino[1,2-b]quinoline-3,14(4H,12H)-dione] | < 0.1 | < 0.1 | < 0.1 | < 0.1
CC[C@@]1(O)C(=O)OCc2c1cc1n(c2=O)Cc2cc3cc(OC)c(F)cc3nc2-1 [Example 9, (S)-4-ethyl-8-fluoro-4-hydroxy-9-methoxy-1H-pyrano[3′,4′:6,7]indolizino[1,2-b]quinoline-3,14(4H,12H)-dione] | < 0.1 | < 0.1 | < 0.1 | < 0.1
CC[C@@]1(O)C(=O)OCc2c1cc1n(c2=O)Cc2cc3ccc(OC)c(O)c3nc2-1 [Example 10, (S)-4-ethyl-4,7-dihydroxy-8-methoxy-1H-pyrano[3′,4′:6,7]indolizino[1,2-b]quinoline-3,14(4H,12H)-dione] | < 0.1 | < 0.5 | < 0.5 | < 0.5
CC[C@@]1(O)C(=O)OCc2c1cc1n(c2=O)Cc2c-1nc1cc(F)c(OC)cc1c2N [Example 11, (S)-11-amino-4-ethyl-8-fluoro-4-hydroxy-9-methoxy-1H-pyrano[3′,4′:6,7]indolizino[1,2-b]quinoline-3,14(4H,12H)-dione] | < 0.1 | < 0.1 | < 0.5 | < 0.1
CC[C@@]1(O)C(=O)OCc2c1cc1n(c2=O)Cc2c-1nc1cc(F)c(OC)cc1c2C [Example 12, (S)-4-ethyl-8-fluoro-4-hydroxy-9-methoxy-11-methyl-1H-pyrano[3′,4′:6,7]indolizino[1,2-b]quinoline-3,14(4H,12H)-dione] | < 0.1 | < 0.1 | < 0.1 | < 0.1
